{"source": "paper PMC9609767", "about": "“Radiosynthesis and Preclinical Evaluation of an ^18F-Labeled Triazolopyridopyrazine-Based Inhibitor for Neuroimaging of the Phosphodiesterase 2A (PDE2A)” (Pharmaceuticals, 2022)", "key": {"[1]": {"assay": "Chemical stability of the radiotracer in PBS and n-octanol", "format": "physicochemical", "details": "30 °C, 60 min, radio-HPLC", "description": "In order to estimate the lipophilicity of [^18F]11, the partition coefficient was determined by the shake flask method using n-octanol and phosphate-buffered saline as partition system. […] The chemical stability of the radiotracer was investigated by incubation in phosphate-buffered saline (PBS) and n-octanol at 30 °C.\nThe determination of stability and logD value has been performed according to the procedures described by Sadeghzadeh and Wenzel et al.."}, "[2]": {"assay": "In vivo metabolism in SPRD rats (radio-HPLC of plasma and brain)", "details": "rat, 30 min p.i., i.v.", "description": "Metabolism in rats has been investigated in the animals applied in PET studies (protocol reported below). In brief, blood was taken from two anesthetized female SPRD rats 30 min after intravenous injection of [^18F]11 followed by decapitation and isolation of the brains. The blood samples and the brains were processed as described above.\nProtein precipitation was performed by the addition of ice-cold ACN/H2O (9:1, v/v) in a ratio of 4:1 (v/v) of organic solvent to plasma or brain homogenate, respectively. The samples were vortexed for 3 min, equilibrated on ice for 3 min, and centrifuged for 10 min at 10,000 rpm and the supernatant collected. The precipitates were washed with 100 μL of the solvent mixture and subjected to the same procedure. The combined supernatants were concentrated at 70 °C under argon flow to a final volume of approximately 100 μL and analysed by analytical radio-HPLC with a gradient system (see radiochemistry general section). The peak corresponding to the radiotracer in the radio-chromatogram was identified by co-injecting the sample with the reference compound 11. To determine the percentage of activity in the supernatants compared to total activity, aliquots of each step as well as the precipitates were quantified by an automated gamma counter (1480 WIZARD, Perkin Elmer, Turku, Finland). […]"}, "[3]": {"assay": "Dynamic PET/MR study in CD-1 mouse", "format": "in vivo", "details": "for Uptake (SUVmean): uncorrected for metabolites", "description": "(§1) For the time of the experiments, one female CD-1 mouse (10 weeks; 30.5 g) and one female SPRD rat (9 weeks; 256 g) were kept in a dedicated climatic chamber with free access to water and food under a 12:12 h dark:light cycle at a constant temperature (24 °C). The animals were anesthetized (Anaesthesia Unit U-410, agntho’s, Lidingö, Sweden) with isoflurane (2.0%, 300 mL/min) delivered in a 60% oxygen/40% air mixture (Gas Blender 100 Series, MCQ instruments, Rome, Italy) and their body temperature maintained at 37 °C with a thermal bed system for the duration of the PET studies. A dynamic PET scan (PET/MR 1T, Mediso nanoScan®, Hungary) started 20 s before intravenous injection into the tail vein of [^18F]11 and was performed in mouse for 60 min (4.9 MBq in 150 μL isotonic saline; 20.5 nmol/kg; Am: 8.9 GBq/μmol, EOS) in rat for 30 min (29.7 MBq in 400 μL isotonic saline; 12 nmol/kg; Am: 11 GBq/μmol, EOS). Each PET image was corrected for random coincidences, dead time, scatter and attenuation (AC), based on a whole body (WB) MR scan. The reconstruction parameters for the list mode data were 3D-ordered subset expectation maximization (OSEM), 4 iterations, 6 subsets, energy window: 400–600 keV, coincidence mode: 1–5, ring difference: 81. Preceding the PET scan a T1 weighted WB gradient echo sequence (TR/TE: 20/6.4 ms, NEX: 1, FA: 25, FOV: 64 × 64 mm, Matrix: 128 × 128, STh: 0.5 mm) was performed for AC and anatomical orientation. PET Images were analyzed with PMOD (PMOD Technologies LLC, v. 4.1, Zurich, Switzerland). The respective brain regions were identified using the mouse brain atlas template Ma-Benveniste-Mirrione-T2 or the rat brain atlas template Schwarz-T2. The regional activity data (radioactivity concentration, kBq/mL) were normalized to the injected dose (MBq) and corrected for the animal weight (g) to provide standardized uptake values (SUV, g/mL). Finally, the results of the PETscans are expressed as mean SUV of the respective region of interest ROI."}, "[4]": {"assay": "Dynamic PET/MR study in SPRD rat", "format": "in vivo", "description": "as §1"}}}
{"molecule": "CCCC(O)c1ccc([18F])c(-c2nnc3c(C)nc4ccc(C5CC5)nc4n23)c1", "note": "(stereo not drawn) [[^18F]11]", "values": [{"measurement": "chemical stability", "setting": "[1]", "value": "stable"}, {"measurement": "fraction of non-metabolized radiotracer in brain", "setting": "[2]", "value": 66, "unit": "%"}, {"measurement": "fraction of non-metabolized radiotracer in plasma", "setting": "[2]", "value": "about 50%"}, {"measurement": "maximum SUV in small intestine", "setting": "[3]; 60 min p.i.", "value": "~ 35 SUV"}, {"measurement": "SUV in bladder, spleen, muscle, gallbladder, kidney, and liver", "setting": "[3]; all time points investigated", "value": "< 5", "unit": "SUV"}, {"measurement": "Uptake (SUVmean)", "setting": "[3]; bladder, 5 min", "value": 0.10, "unit": "SUV"}, {"measurement": "Uptake (SUVmean)", "setting": "[3]; bladder, 15 min", "value": 0.08, "unit": "SUV"}, {"measurement": "Uptake (SUVmean)", "setting": "[3]; bladder, 30 min", "value": 0.10, "unit": "SUV"}, {"measurement": "Uptake (SUVmean)", "setting": "[3]; bladder, 45 min", "value": 0.07, "unit": "SUV"}, {"measurement": "Uptake (SUVmean)", "setting": "[3]; bladder, 60 min", "value": 0.06, "unit": "SUV"}, {"measurement": "Uptake (SUVmean)", "setting": "[3]; blood, 5 min", "value": 0.93, "unit": "SUV"}, {"measurement": "Uptake (SUVmean)", "setting": "[3]; blood, 15 min", "value": 0.56, "unit": "SUV"}, {"measurement": "Uptake (SUVmean)", "setting": "[3]; blood, 30 min", "value": 0.46, "unit": "SUV"}, {"measurement": "Uptake (SUVmean)", "setting": "[3]; blood, 45 min", "value": 0.34, "unit": "SUV"}, {"measurement": "Uptake (SUVmean)", "setting": "[3]; blood, 60 min", "value": 0.32, "unit": "SUV"}, {"measurement": "Uptake (SUVmean)", "setting": "[3]; bones, 5 min", "value": 0.71, "unit": "SUV"}, {"measurement": "Uptake (SUVmean)", "setting": "[3]; bones, 15 min", "value": 0.47, "unit": "SUV"}, {"measurement": "Uptake (SUVmean)", "setting": "[3]; bones, 30 min", "value": 0.31, "unit": "SUV"}, {"measurement": "Uptake (SUVmean)", "setting": "[3]; bones, 45 min", "value": 0.23, "unit": "SUV"}, {"measurement": "Uptake (SUVmean)", "setting": "[3]; bones, 60 min", "value": 0.20, "unit": "SUV"}, {"measurement": "Uptake (SUVmean)", "setting": "[3]; caecum, 5 min", "value": 0.10, "unit": "SUV"}, {"measurement": "Uptake (SUVmean)", "setting": "[3]; caecum, 15 min", "value": 0.12, "unit": "SUV"}, {"measurement": "Uptake (SUVmean)", "setting": "[3]; caecum, 30 min", "value": 0.11, "unit": "SUV"}, {"measurement": "Uptake (SUVmean)", "setting": "[3]; caecum, 45 min", "value": 0.11, "unit": "SUV"}, {"measurement": "Uptake (SUVmean)", "setting": "[3]; caecum, 60 min", "value": 0.16, "unit": "SUV"}, {"measurement": "TAC peak value (SUV)", "setting": "[3]; cerebellum, at 0.8 min", "value": 0.61, "unit": "SUV"}, {"measurement": "TAC peak value (SUV)", "setting": "[3]; cortex, at 2.8 min", "value": 0.47, "unit": "SUV"}, {"measurement": "Uptake (SUVmean)", "setting": "[3]; gallbladder, 5 min", "value": 1.41, "unit": "SUV"}, {"measurement": "Uptake (SUVmean)", "setting": "[3]; gallbladder, 15 min", "value": 1.78, "unit": "SUV"}, {"measurement": "Uptake (SUVmean)", "setting": "[3]; gallbladder, 30 min", "value": 1.46, "unit": "SUV"}, {"measurement": "Uptake (SUVmean)", "setting": "[3]; gallbladder, 45 min", "value": 1.32, "unit": "SUV"}, {"measurement": "Uptake (SUVmean)", "setting": "[3]; gallbladder, 60 min", "value": 1.34, "unit": "SUV"}, {"measurement": "Uptake (SUVmean)", "setting": "[3]; heart, 5 min", "value": 1.11, "unit": "SUV"}, {"measurement": "Uptake (SUVmean)", "setting": "[3]; heart, 15 min", "value": 0.65, "unit": "SUV"}, {"measurement": "Uptake (SUVmean)", "setting": "[3]; heart, 30 min", "value": 0.52, "unit": "SUV"}, {"measurement": "Uptake (SUVmean)", "setting": "[3]; heart, 45 min", "value": 0.37, "unit": "SUV"}, {"measurement": "Uptake (SUVmean)", "setting": "[3]; heart, 60 min", "value": 0.35, "unit": "SUV"}, {"measurement": "TAC peak value (SUV)", "setting": "[3]; hippocampus, at 2.8 min", "value": 0.70, "unit": "SUV"}, {"measurement": "Uptake (SUVmean)", "setting": "[3]; kidney left, 5 min", "value": 2.79, "unit": "SUV"}, {"measurement": "Uptake (SUVmean)", "setting": "[3]; kidney left, 15 min", "value": 2.37, "unit": "SUV"}, {"measurement": "Uptake (SUVmean)", "setting": "[3]; kidney left, 30 min", "value": 1.61, "unit": "SUV"}, {"measurement": "Uptake (SUVmean)", "setting": "[3]; kidney left, 45 min", "value": 1.18, "unit": "SUV"}, {"measurement": "Uptake (SUVmean)", "setting": "[3]; kidney left, 60 min", "value": 1.17, "unit": "SUV"}, {"measurement": "Uptake (SUVmean)", "setting": "[3]; liver, 5 min", "value": 3.40, "unit": "SUV"}, {"measurement": "Uptake (SUVmean)", "setting": "[3]; liver, 15 min", "value": 4.16, "unit": "SUV"}, {"measurement": "Uptake (SUVmean)", "setting": "[3]; liver, 30 min", "value": 3.62, "unit": "SUV"}, {"measurement": "Uptake (SUVmean)", "setting": "[3]; liver, 45 min", "value": 3.17, "unit": "SUV"}, {"measurement": "Uptake (SUVmean)", "setting": "[3]; liver, 60 min", "value": 3.00, "unit": "SUV"}, {"measurement": "Uptake (SUVmean)", "setting": "[3]; lung, 5 min", "value": 0.65, "unit": "SUV"}, {"measurement": "Uptake (SUVmean)", "setting": "[3]; lung, 15 min", "value": 0.43, "unit": "SUV"}, {"measurement": "Uptake (SUVmean)", "setting": "[3]; lung, 30 min", "value": 0.33, "unit": "SUV"}, {"measurement": "Uptake (SUVmean)", "setting": "[3]; lung, 45 min", "value": 0.25, "unit": "SUV"}, {"measurement": "Uptake (SUVmean)", "setting": "[3]; lung, 60 min", "value": 0.25, "unit": "SUV"}, {"measurement": "Uptake (SUVmean)", "setting": "[3]; muscle, 5 min", "value": 0.63, "unit": "SUV"}, {"measurement": "Uptake (SUVmean)", "setting": "[3]; muscle, 15 min", "value": 0.49, "unit": "SUV"}, {"measurement": "Uptake (SUVmean)", "setting": "[3]; muscle, 30 min", "value": 0.35, "unit": "SUV"}, {"measurement": "Uptake (SUVmean)", "setting": "[3]; muscle, 45 min", "value": 0.26, "unit": "SUV"}, {"measurement": "Uptake (SUVmean)", "setting": "[3]; muscle, 60 min", "value": 0.21, "unit": "SUV"}, {"measurement": "Uptake (SUVmean)", "setting": "[3]; small intestine, 5 min", "value": 2.10, "unit": "SUV"}, {"measurement": "Uptake (SUVmean)", "setting": "[3]; small intestine, 15 min", "value": 9.48, "unit": "SUV"}, {"measurement": "Uptake (SUVmean)", "setting": "[3]; small intestine, 30 min", "value": 20.64, "unit": "SUV"}, {"measurement": "Uptake (SUVmean)", "setting": "[3]; small intestine, 45 min", "value": 29.65, "unit": "SUV"}, {"measurement": "Uptake (SUVmean)", "setting": "[3]; small intestine, 60 min", "value": 35.11, "unit": "SUV"}, {"measurement": "Uptake (SUVmean)", "setting": "[3]; spleen, 5 min", "value": 0.48, "unit": "SUV"}, {"measurement": "Uptake (SUVmean)", "setting": "[3]; spleen, 15 min", "value": 0.59, "unit": "SUV"}, {"measurement": "Uptake (SUVmean)", "setting": "[3]; spleen, 30 min", "value": 0.45, "unit": "SUV"}, {"measurement": "Uptake (SUVmean)", "setting": "[3]; spleen, 45 min", "value": 0.30, "unit": "SUV"}, {"measurement": "Uptake (SUVmean)", "setting": "[3]; spleen, 60 min", "value": 0.24, "unit": "SUV"}, {"measurement": "Uptake (SUVmean)", "setting": "[3]; stomach, 5 min", "value": 0.15, "unit": "SUV"}, {"measurement": "Uptake (SUVmean)", "setting": "[3]; stomach, 15 min", "value": 0.18, "unit": "SUV"}, {"measurement": "Uptake (SUVmean)", "setting": "[3]; stomach, 30 min", "value": 0.19, "unit": "SUV"}, {"measurement": "Uptake (SUVmean)", "setting": "[3]; stomach, 45 min", "value": 0.17, "unit": "SUV"}, {"measurement": "Uptake (SUVmean)", "setting": "[3]; stomach, 60 min", "value": 0.13, "unit": "SUV"}, {"measurement": "TAC peak value (SUV)", "setting": "[3]; striatum, at 2.8 min", "value": 0.71, "unit": "SUV"}, {"measurement": "peak value of brain time-activity curve (SUV)", "setting": "[3]; whole brain, at 2.8 min p.i.", "value": 0.55, "unit": "SUV"}, {"measurement": "SUV caudate putamen", "setting": "[4]; 15 min p.i.", "value": 0.51, "unit": "SUV"}, {"measurement": "SUV cerebellum", "setting": "[4]; 15 min p.i.", "value": 0.40, "unit": "SUV"}, {"measurement": "peak value of brain uptake (SUV)", "setting": "[4]; whole brain, at 0.6 min", "value": 0.97, "unit": "SUV"}]}
